Assay [1] relates to Ramos cells. The assay can be described thus: Ramos proliferation assay (XTT). To be noted: Homo sapiens, 72 hrs; for inhibition at 30 µM: read-out: Maximum % Inhibition at 30 μM; for IC50: XTT; for inhibition at 10 µM: read-out: Maximum % Inhibition (at 10 μM). Type of assay: cell-based. The source says:
Cell proliferation assay is a sensitive method for quantification of viable cells in cytotoxicity or proliferation assay. The XTT (2,3-bis[2-Methoxy-4-nitro-5-sulfophenyl]-2 H-tetrazolium-5-carboxyanilide inner salt) system is a means of measuring the activity of living cells via mitochondrial dehydrogenases. Mitochondrial dehydrogenases of viable cells cleave the tetrazolium ring of XTT, yielding orange formazon crystals which are soluble in aqueous solutions. The XTT solution is potentiated by the addition of an electron coupling agent, phenazine methosulphate (PMS) to the reaction. The resulting orange colour is spectrophotometrically measured at 450 nm. An increase or decrease in cell numbers results in a concomitant change in the amount of formazon formed, indicating the degree of cytotoxicity caused by the test material.
Dissolve 17.7 g IMDM (Iscove's Modified Dulbecco's Medium) powder, 1.5 g sodium bicarbonate pH 7.2-7.4 in 1 L MiliQ water, add 1% Pencilin/ Streptomycin and 10% FBS.
Dissolve 10.6 g Ham's F12 powder, 1.5 g sodium bicarbonate pH 7.2-7.4 in 1 L MiliQ water, add 1% Penicillin/Streptomycin. DMSO used as vehicle.
Ramos cells were re-suspended to a density of 1×10^5 cells/ ml in complete IMDM medium. 95 μL of this cell suspension was added to the 96-well plate to seed ˜10,000 cells per well. The plates were incubated at 37° C. under a humidified atmosphere of 5% CO2 for ˜1 hour before compound addition.
Test compounds (Refer to Table 1) were dissolved in 100% DMSO to generate a 2/6/10/20 mM stock solution. A 200× concentration of the required final concentrations was prepared in DMSO. 10 μL of each concentration (200×) was then diluted in 90 μL of serum-free Ham's F12 medium to get an intermediate concentration of 20× in medium. The DMSO concentration in this step is 10% (Intermediate dilution). 5 μL of each intermediate dilution was then added in triplicates in the previously seeded 96-well plate. The final DMSO concentration was 0.5% in the experimental wells. Cells treated with 0.5% DMSO served as positive control. 100 μL, of complete IMDM medium served as media blank for data analysis. 200 μL, of 1× PBS was added in all corner wells of the assay plate. Plates were then incubated for 72 hrs in an incubator with 5% CO2 at 37° C.
On termination day, 100 μl of XTT solution (1 mg/ml XTT supplemented with 25 μM PMS in Ham's F12 medium) was added to each well. Plates were incubated for 2 hrs. The amount of formazon produced was determined by reading the absorbance of the plate using VICTOR X5 multilabel plate reader at wavelength of 450 nm. The IC50 values were determined as concentrations that reduced cell viability by 50% and the curve was plotted with GraphPad Prism 6.0.
Percent (%) Inhibition was calculated by normalizing DMSO control values to 100% using the formula: % Inhibition=[…](Abs450test compound−blank)/(Abs450positive control−blank)*100
Test compound contains cells, test compound, IMDM medium and 0.5% DMSO
Positive control contains cells, IMDM medium and 0.5% DMSO
Blank contains IMDM medium
A general note: Formazan colour is commonly taken as a measure of viable cells.

The target of assay [2] is DHODH (Homo sapiens (Human), UniProt Q02127). The assay can be described thus: DHODH activity assay (coupled enzyme assay, DCIP reduction). It counts as biochemical. To be noted: read-out: DHODH inhibition activity, IC50 group. As for the experimental part: The DHODH activity assay is a coupled enzyme assay in which oxidation of DHO and subsequent reduction of ubiquinone are stoichiometrically equivalent to the reduction of DCIP ([…]). The reduction of DCIP is accompanied by a loss of absorbance at 610 nm.
DHODH, sequence (Q02127 whole entry): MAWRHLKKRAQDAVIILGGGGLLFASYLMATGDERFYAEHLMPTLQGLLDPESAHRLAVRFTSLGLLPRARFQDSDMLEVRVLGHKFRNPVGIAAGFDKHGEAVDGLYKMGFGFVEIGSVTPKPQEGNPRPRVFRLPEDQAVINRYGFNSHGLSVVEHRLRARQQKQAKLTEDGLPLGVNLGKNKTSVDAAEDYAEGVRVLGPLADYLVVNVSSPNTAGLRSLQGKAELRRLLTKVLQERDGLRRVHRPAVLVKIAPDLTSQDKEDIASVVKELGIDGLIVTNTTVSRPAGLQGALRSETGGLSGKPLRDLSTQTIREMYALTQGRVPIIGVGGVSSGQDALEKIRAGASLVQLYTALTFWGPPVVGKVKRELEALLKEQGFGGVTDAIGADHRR
Buffer Preparation: 50 mM tris HCl, 150 mM KCl, and pH 8.0, 0.8% triton.
L-Dihydroorotic acid stock solution of 20 mM in buffer.
2, 6-Dichloroindophenol Sodium salt hydrate stock solution of 20 mM in buffer.
Decylubiquinone stock solution of 20 mM in buffer.
5 μL of Dimethyl sulfoxide or a compound of formula (I) in DMSO solution was added to the wells of a 96 well plate. Compounds of formula (I) were measured at 10 μM.
Protein along with buffer was added, so that the total volume including the DMSO was 87 μL. Compound and protein were incubated for half an hour at room temperature after mixing. 5 μL of 20 mM solution of L-Dihydroorotic acid, 5 μL of 2 mM solution of Decylubiquinone and 3 μL of 2 mM solution of 2, 6-Dichloroindophenol sodium salt hydrate were added to the above solution (total assay volume 100 μL). The mixture was stirred for 2 min and absorbance was recorded at every 10 min at 610 nanometers.
Percent inhibition is calculated as follows: […]
A 2 mM DMSO stock solution of the selected trisubstituted benzoimidazole and benzotriazole derivatives of formula (I) of the present invention to be examined was prepared. Subsequent ⅓rd dilutions were made.
5 μL of each stock of compound of formula (I) was used for each 100 μL assay. Therefore, 5 μL of the 2 mM stock provided 100 μL of 100 μM solution of compound of formula (I), when made up with buffer, protein and substrate. See also: Ulrich et al. (2001) Eur. J. Biochem.268, 1861-1868.

The values that follow come from patent US11147801B2, “Methods of use for trisubstituted benzotriazole derivatives as dihydroorotate oxygenase inhibitors” (Aurigene Discovery Technologies Limited, priority 2017, dated 2021).

By inhibition is commonly meant the change of the read-out against control, counted positive when it falls. The IC50 is the concentration that gives 50% inhibition. Consider `CC(=O)Nc1cccc(-c2ccc(-c3cc(C(=O)O)c4c(c3)nnn4C)cc2)c1` [Compound 32, 5-(3′-acetamido-[1,1′-biphenyl]-4-yl)-1-methyl-1H-benzo[d][1,2,3]triazole-7-carboxylic acid], for which, in assay [1], the inhibition at 30 µM came out at 74%. The IC50 in assay [1] is 14600 nM; in assay [2] it was more than 1000 nM.

`Cn1nc2cc(-c3c(F)c(F)c(-c4cccc(CN5CCOCC5)c4)c(F)c3F)cc(C(=O)O)c2n1` [Compound 39, 2-methyl-6-(2,3,5,6-tetrafluoro-3′-(morpholinomethyl)-[1,1′-biphenyl]-4-yl)-2H-benzo[d][1,2,3]triazole-4-carboxylic acid]: in assay [1], the inhibition at 30 µM came to 96% and the 50% inhibitory concentration (IC50) came out at 1870 nM. Besides, in assay [2], the IC50 is 101 to 1000 nM.

As for `Cc1ccccc1-c1ccc(-c2cc(C(=O)O)c3nn(C)nc3c2)cc1` [Compound 8, 2-methyl-6-(2′-methyl-[1,1′-biphenyl]-4-yl)-2H-benzo[d][1,2,3]triazole-4-carboxylic acid], the inhibition at 30 µM in assay [1] stood at 103%. Moreover, the IC50 is 154 nM in assay [1] and less than 100 nM in assay [2].

Take `Cn1nnc2cc(-c3ccc(-c4cccc(CN5CCOCC5)c4)cc3)cc(C(=O)O)c21` [Compound 15, 1-methyl-5-(3′-(morpholinomethyl)-[1,1′-biphenyl]-4-yl)-1H-benzo[d][1,2,3]triazole-7-carboxylic acid]: in assay [1], the inhibition at 30 µM stood at 96% and the IC50 turned out to be 8410 nM. Also, in assay [2], the IC50 is more than 1000 nM.

For `Cc1ccc(C)n1-c1ccc(-c2cc(C(=O)O)c3c(c2)nnn3C)cc1` [Compound 12, 5-(4-(2,5-dimethyl-1H-pyrrol-1-yl)phenyl)-1-methyl-1H-benzo[d][1,2,3]triazole-7-carboxylic acid], in assay [1], the inhibition at 30 µM was 103% and the IC50 was 362 nM. Further, in assay [2], the IC50 was less than 100 nM.

Consider `Cn1nc2cc(-c3ccc(-c4ccccc4)cc3)cc(C(=O)O)c2n1` [Compound 4, 6-([1,1′-biphenyl]-4-yl)-2-methyl-2H-benzo[d][1,2,3]triazole-4-carboxylic acid], for which the inhibition at 30 µM in assay [1] worked out at 107%. For the same compound, the IC50 in assay [1] is 1450 nM; in assay [2], 101 to 1000 nM.

Turning to `CN1CCN(Cc2cccc(-c3c(F)c(F)c(-c4cc(C(=O)O)c5c(c4)nnn5C)c(F)c3F)c2)CC1` [Compound 35, 1-methyl-5-(2,3,5,6-tetrafluoro-3′-((4-methylpiperazin-1-yl)methyl)-[1,1′-biphenyl]-4-yl)-1H-benzo[d][1,2,3]triazole-7-carboxylic acid], the IC50 in assay [2] is more than 1000 nM.

`Cn1nc2cc(-c3c(F)c(F)c(-c4ccccc4)c(F)c3F)cc(C(=O)O)c2n1` [Compound 24, 2-methyl-6-(2,3,5,6-tetrafluoro-[1,1′-biphenyl]-4-yl)-2H-benzo[d][1,2,3]triazole-4-carboxylic acid]: in assay [1], the inhibition at 30 µM was 104% and the IC50 is 400 nM. Besides, in assay [2], the IC50 was less than 100 nM.

For the compound `Cn1nc2cc(-c3c(F)c(F)c(-c4cccc(CN5CCCCC5)c4)c(F)c3F)cc(C(=O)O)c2n1` [Compound 38, 2-methyl-6-(2,3,5,6-tetrafluoro-3′-(piperidin-1-ylmethyl)-[1,1′-biphenyl]-4-yl)-2H-benzo[d][1,2,3]triazole-4-carboxylic acid], in assay [1], the inhibition at 30 µM amounted to 92% and the IC50 came to 1600 nM. Also, in assay [2], the IC50 fell in the range of 101 to 1000 nM.

As for `Cn1nnc2cc(-c3c(F)c(F)c(-c4cccc(CN5CCOCC5)c4)c(F)c3F)cc(C(=O)O)c21` [Compound 33, 1-methyl-5-(2,3,5,6-tetrafluoro-3′-(morpholinomethyl)-[1,1′-biphenyl]-4-yl)-1H-benzo[d][1,2,3]triazole-7-carboxylic acid], the IC50 in assay [2] fell in the range of 101 to 1000 nM.

With `Cn1nnc2c(C(=O)O)cc(-c3ccc(-c4cccc(CN5CCCCC5)c4)cc3)cc21` [Compound 20, 1-methyl-6-(3′-(piperidin-1-ylmethyl)-[1,1′-biphenyl]-4-yl)-1H-benzo[d][1,2,3]triazole-4-carboxylic acid], in assay [1], the inhibition at 30 µM is 129% and the IC50 came to 3720 nM. In addition, the IC50 in assay [2] was more than 1000 nM.

Take `CN(C)Cc1cccc(-c2c(F)c(F)c(-c3cc(C(=O)O)c4c(c3)nnn4C)c(F)c2F)c1` [Compound 40, 5-(3′-((dimethylamino)methyl)-2,3,5,6-tetrafluoro-[1,1′-biphenyl]-4-yl)-1-methyl-1H-benzo[d][1,2,3]triazole-7-carboxylic acid]: the inhibition at 30 µM in assay [1] was determined as 84%. Also, the IC50 was 11800 nM in assay [1] and 101 to 1000 nM in assay [2].

Take `Cn1nnc2cc(-c3c(F)c(F)c(-c4cccc(CN5CCCCC5)c4)c(F)c3F)cc(C(=O)O)c21` [Compound 34, 1-methyl-5-(2,3,5,6-tetrafluoro-3′-(piperidin-1-ylmethyl)-[1,1′-biphenyl]-4-yl)-1H-benzo[d][1,2,3]triazole-7-carboxylic acid.2,2,2-trifluoroacetic acid]: in assay [1], the inhibition at 10 µM is 111%. Moreover, the IC50 was 675 nM in assay [1] and 101 to 1000 nM in assay [2].

For the compound `Cn1nc2cc(-c3ccc(-c4cccc(CN5CCOCC5)c4)cc3)cc(C(=O)O)c2n1` [Compound 16, 2-methyl-6-(3′-(morpholinomethyl)-[1,1′-biphenyl]-4-yl)-2H-benzo[d][1,2,3]triazole-4-carboxylic acid], in assay [1], the inhibition at 30 µM turned out to be 124% and the IC50 is 6140 nM. Further, the IC50 in assay [2] is more than 1000 nM.

As to `CNCc1cccc(-c2c(F)c(F)c(-c3cc(C(=O)O)c4c(c3)nnn4C)c(F)c2F)c1` [Compound 37, 1-methyl-5-(2,3,5,6-tetrafluoro-3′-((methylamino)methyl)-[1,1′-biphenyl]-4-yl)-1H-benzo[d][1,2,3]triazole-7-carboxylic acid], the half-inhibitory concentration (IC50) in assay [2] was more than 1000 nM.

As to `CC(C)NCc1cccc(-c2c(F)c(F)c(-c3cc(C(=O)O)c4c(c3)nnn4C)c(F)c2F)c1` [Compound 36, 1-methyl-5-(2,3,5,6-tetrafluoro-3′-((isopropylamino)methyl)-[1,1′-biphenyl]-4-yl)-1H-benzo[d][1,2,3]triazole-7-carboxylic acid], the IC50 in assay [2] lay in the range of 101 to 1000 nM.

With `Cn1nnc2cc(-c3ccc(-c4ccc(CN5CCOCC5)cc4)cc3)cc(C(=O)O)c21` [Compound 31, 1-methyl-5-(4′-(morpholinomethyl)-[1,1′-biphenyl]-4-yl)-1H-benzo[d][1,2,3]triazole-7-carboxylic acid], in assay [1], the inhibition at 10 µM stood at 81% and the IC50 came to 1350 nM. Moreover, the half-inhibitory concentration (IC50) in assay [2] is more than 1000 nM.
